Measurements reported in the NIST ThermoML archive (doi:10.1021/je060271a).
Numbers after ± are expanded uncertainties.

Details: 303.15 K, Liquid, Vibrating tube method

A mass density (28411 kPa) of 972 ± 1.2 kg/m3, a mass density (28450 kPa) of 971.9 ± 1.2 kg/m3 and a mass density (28485 kPa) of 972 ± 1.2 kg/m3 were found for CCCCCCCC(=O)OCC(COC(=O)CCCCCCC)(COC(=O)CCCCCCC)COC(=O)CCCCCCC [pentaerythritol tetraoctanoate] in this work. The mass density (28563 kPa) was 972.1 ± 1.2 kg/m3, the mass density (28635 kPa) was 972 ± 1.2 kg/m3 and the mass density (28718 kPa) was 972.1 ± 1.2 kg/m3. The mass density (28794 kPa) was 972.2 ± 1.2 kg/m3, the mass density (28833 kPa) was 972.2 ± 1.2 kg/m3 and the mass density (28858 kPa) was 972 ± 1.2 kg/m3. It also gave a mass density (28881 kPa) of 972.2 ± 1.2 kg/m3, a mass density (28903 kPa) of 972.2 ± 1.2 kg/m3 and a mass density (28932 kPa) of 972.2 ± 1.2 kg/m3. It also gave a mass density (28954 kPa) of 972.3 ± 1.2 kg/m3, a mass density (28977 kPa) of 972.2 ± 1.2 kg/m3 and a mass density (29007 kPa) of 972.1 ± 1.2 kg/m3. The mass density (29030 kPa) was 972.2 ± 1.2 kg/m3, the mass density (29057 kPa) was 972.3 ± 1.2 kg/m3 and the mass density (29081 kPa) was 972.3 ± 1.2 kg/m3. It also gave a mass density (29107 kPa) of 972.3 ± 1.2 kg/m3, a mass density (29129 kPa) of 972.3 ± 1.2 kg/m3 and a mass density (29159 kPa) of 972.2 ± 1.2 kg/m3. For the same compound, the mass density (29182 kPa) was 972.4 ± 1.2 kg/m3, the mass density (29208 kPa) was 972.2 ± 1.2 kg/m3 and the mass density (29237 kPa) was 972.4 ± 1.2 kg/m3. It also gave a mass density (29263 kPa) of 971.8 ± 1.2 kg/m3, a mass density (29291 kPa) of 972.4 ± 1.2 kg/m3 and a mass density (29316 kPa) of 972.4 ± 1.2 kg/m3. For the same compound, the mass density (29341 kPa) was 972.6 ± 1.2 kg/m3, the mass density (29366 kPa) was 972.4 ± 1.2 kg/m3 and the mass density (29397 kPa) was 972.5 ± 1.2 kg/m3. It also gave a mass density (29422 kPa) of 972.5 ± 1.2 kg/m3, a mass density (29447 kPa) of 972.5 ± 1.2 kg/m3 and a mass density (29476 kPa) of 972.5 ± 1.2 kg/m3. The mass density (29501 kPa) was 972.6 ± 1.2 kg/m3, the mass density (29527 kPa) was 972.6 ± 1.2 kg/m3 and the mass density (29551 kPa) was 972.5 ± 1.2 kg/m3. It also gave a mass density (29579 kPa) of 972.5 ± 1.2 kg/m3, a mass density (29610 kPa) of 972.6 ± 1.2 kg/m3 and a mass density (29627 kPa) of 972.6 ± 1.2 kg/m3. The mass density (29648 kPa) was 972.6 ± 1.2 kg/m3, the mass density (29671 kPa) was 972.6 ± 1.2 kg/m3 and the mass density (29696 kPa) was 972.7 ± 1.2 kg/m3. For the same compound, the mass density (29725 kPa) was 972.7 ± 1.2 kg/m3, the mass density (29750 kPa) was 972.6 ± 1.2 kg/m3 and the mass density (29775 kPa) was 972.6 ± 1.2 kg/m3. The mass density (29807 kPa) was 972.8 ± 1.2 kg/m3, the mass density (29827 kPa) was 972.7 ± 1.2 kg/m3 and the mass density (29857 kPa) was 972.7 ± 1.2 kg/m3. For the same compound, the mass density (29882 kPa) was 972.8 ± 1.2 kg/m3, the mass density (29912 kPa) was 972.7 ± 1.2 kg/m3 and the mass density (29937 kPa) was 972.6 ± 1.2 kg/m3. The mass density (29963 kPa) was 972.7 ± 1.2 kg/m3, the mass density (29993 kPa) was 972.9 ± 1.2 kg/m3 and the mass density (30018 kPa) was 972.7 ± 1.2 kg/m3. The mass density (30044 kPa) was 972.8 ± 1.2 kg/m3, the mass density (30069 kPa) was 972.8 ± 1.2 kg/m3 and the mass density (30100 kPa) was 972.9 ± 1.2 kg/m3. For the same compound, the mass density (30125 kPa) was 972.8 ± 1.2 kg/m3, the mass density (30151 kPa) was 972.8 ± 1.2 kg/m3 and the mass density (30183 kPa) was 972.9 ± 1.2 kg/m3. For the same compound, the mass density (30209 kPa) was 973 ± 1.2 kg/m3, the mass density (30234 kPa) was 973 ± 1.2 kg/m3 and the mass density (30260 kPa) was 973 ± 1.2 kg/m3. For the same compound, the mass density (30291 kPa) was 972.9 ± 1.2 kg/m3, the mass density (30317 kPa) was 973 ± 1.2 kg/m3 and the mass density (30343 kPa) was 972.9 ± 1.2 kg/m3. It also gave a mass density (30374 kPa) of 973 ± 1.2 kg/m3, a mass density (30400 kPa) of 972.9 ± 1.2 kg/m3 and a mass density (30431 kPa) of 973.1 ± 1.2 kg/m3. It also gave a mass density (30457 kPa) of 973 ± 1.2 kg/m3, a mass density (30483 kPa) of 973.1 ± 1.2 kg/m3 and a mass density (30510 kPa) of 973.1 ± 1.2 kg/m3. It also gave a mass density (30541 kPa) of 973 ± 1.2 kg/m3, a mass density (30568 kPa) of 972.9 ± 1.2 kg/m3 and a mass density (30595 kPa) of 973.1 ± 1.2 kg/m3. It also gave a mass density (30626 kPa) of 973.2 ± 1.2 kg/m3, a mass density (30652 kPa) of 973.1 ± 1.2 kg/m3 and a mass density (30685 kPa) of 973.2 ± 1.2 kg/m3. It also gave a mass density (30711 kPa) of 973.2 ± 1.2 kg/m3, a mass density (30738 kPa) of 973.3 ± 1.2 kg/m3 and a mass density (30765 kPa) of 973.1 ± 1.2 kg/m3. The mass density (30797 kPa) was 973.2 ± 1.2 kg/m3, the mass density (30824 kPa) was 973.2 ± 1.2 kg/m3 and the mass density (30852 kPa) was 973.1 ± 1.2 kg/m3. It also gave a mass density (30884 kPa) of 973.2 ± 1.2 kg/m3, a mass density (30911 kPa) of 973.4 ± 1.2 kg/m3 and a mass density (30938 kPa) of 973.2 ± 1.2 kg/m3. The mass density (30971 kPa) was 973.2 ± 1.2 kg/m3, the mass density (30998 kPa) was 973.3 ± 1.2 kg/m3 and the mass density (31025 kPa) was 973.3 ± 1.2 kg/m3. The mass density (31057 kPa) was 973.4 ± 1.2 kg/m3, the mass density (31085 kPa) was 973.5 ± 1.2 kg/m3 and the mass density (31113 kPa) was 973.5 ± 1.2 kg/m3. It also gave a mass density (31145 kPa) of 973.5 ± 1.2 kg/m3, a mass density (31172 kPa) of 973.6 ± 1.2 kg/m3 and a mass density (31206 kPa) of 973.4 ± 1.2 kg/m3. For the same compound, the mass density (31234 kPa) was 973.5 ± 1.2 kg/m3, the mass density (31261 kPa) was 973.5 ± 1.2 kg/m3 and the mass density (31290 kPa) was 973.5 ± 1.2 kg/m3. For the same compound, the mass density (31323 kPa) was 973.5 ± 1.2 kg/m3, the mass density (31351 kPa) was 973.5 ± 1.2 kg/m3 and the mass density (31380 kPa) was 973.6 ± 1.2 kg/m3. The mass density (31413 kPa) was 973.5 ± 1.2 kg/m3, the mass density (31442 kPa) was 973.6 ± 1.2 kg/m3 and the mass density (31469 kPa) was 973.7 ± 1.2 kg/m3. It also gave a mass density (31503 kPa) of 973.6 ± 1.2 kg/m3, a mass density (31532 kPa) of 973.7 ± 1.2 kg/m3 and a mass density (31560 kPa) of 973.7 ± 1.2 kg/m3. The mass density (31589 kPa) was 973.6 ± 1.2 kg/m3, the mass density (31624 kPa) was 973.7 ± 1.2 kg/m3 and the mass density (31653 kPa) was 973.6 ± 1.2 kg/m3. For the same compound, the mass density (31681 kPa) was 973.8 ± 1.2 kg/m3, the mass density (31715 kPa) was 973.8 ± 1.2 kg/m3 and the mass density (31744 kPa) was 973.7 ± 1.2 kg/m3. The mass density (31773 kPa) was 973.7 ± 1.2 kg/m3, the mass density (31808 kPa) was 973.8 ± 1.2 kg/m3 and the mass density (31836 kPa) was 973.7 ± 1.2 kg/m3. For the same compound, the mass density (31865 kPa) was 973.8 ± 1.2 kg/m3, the mass density (31900 kPa) was 973.8 ± 1.2 kg/m3 and the mass density (31929 kPa) was 973.8 ± 1.2 kg/m3. It also gave a mass density (31958 kPa) of 973.8 ± 1.2 kg/m3, a mass density (31994 kPa) of 973.8 ± 1.2 kg/m3 and a mass density (32025 kPa) of 973.9 ± 1.2 kg/m3. It also gave a mass density (32055 kPa) of 973.9 ± 1.2 kg/m3, a mass density (32084 kPa) of 973.8 ± 1.2 kg/m3 and a mass density (32120 kPa) of 973.9 ± 1.2 kg/m3. For the same compound, the mass density (32150 kPa) was 974 ± 1.2 kg/m3, the mass density (32179 kPa) was 973.9 ± 1.2 kg/m3 and the mass density (32215 kPa) was 973.9 ± 1.2 kg/m3. For the same compound, the mass density (32244 kPa) was 974 ± 1.2 kg/m3, the mass density (32274 kPa) was 974 ± 1.2 kg/m3 and the mass density (32311 kPa) was 974 ± 1.2 kg/m3. For the same compound, the mass density (32340 kPa) was 974 ± 1.2 kg/m3, the mass density (32370 kPa) was 974.1 ± 1.2 kg/m3 and the mass density (32407 kPa) was 974 ± 1.2 kg/m3. It also gave a mass density (32432 kPa) of 974.1 ± 1.2 kg/m3, a mass density (32469 kPa) of 974.1 ± 1.2 kg/m3 and a mass density (32499 kPa) of 974.2 ± 1.2 kg/m3. The mass density (32535 kPa) was 974.2 ± 1.2 kg/m3, the mass density (32566 kPa) was 974.2 ± 1.2 kg/m3 and the mass density (32596 kPa) was 974.2 ± 1.2 kg/m3. It also gave a mass density (32626 kPa) of 974.2 ± 1.2 kg/m3, a mass density (32663 kPa) of 974.2 ± 1.2 kg/m3 and a mass density (32693 kPa) of 974.1 ± 1.2 kg/m3. For the same compound, the mass density (32730 kPa) was 974.3 ± 1.2 kg/m3, the mass density (32761 kPa) was 974.3 ± 1.2 kg/m3 and the mass density (32792 kPa) was 974.3 ± 1.2 kg/m3. It also gave a mass density (32829 kPa) of 974.3 ± 1.2 kg/m3.
